Source: US20240041042A1, “1-(PYRIDYL)-5-AZINYLPYRAZOLE DERIVATIVES, AND THEIR USE FOR CONTROL OF UNDESIRED PLANT GROWTH” (Bayer Aktiengesellschaft, priority 2020, published 2024)
Like-named read-outs stand apart in the source and are kept apart here.

Key:
Assay type in all cases: in vivo
[1] = tested on: Alopecurus myosuroides (ALOMY); assay: Pre-emergence herbicidal action against ALOMY; details: 320 g/ha; scored visually after about 3 weeks; 100% = plants have died
How it was run: (§1)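 Seeds sown in pots and covered with soil; WP or EC formulations sprayed onto the soil surface at 600 l/ha water with 0.5% additive, at 320 g/ha or lower. Greenhouse growth for about 3 weeks, then visual scoring as % effect against untreated controls (100% = plants dead).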

[2] = tested on: Amaranthus retroflexus (AMARE); assay: Pre-emergence herbicidal action against AMARE; details: 320 g/ha, visual scoring after about 3 weeks vs untreated controls
How it was run: as §1

Avena fatua (AVEFA) [3] = assay: Pre-emergence herbicidal action against AVEFA; details: 320 g/ha, visual scoring after about 3 weeks vs untreated controls
How it was run: as §1

[4] = tested on: Digitaria sanguinalis (DIGSA); assay: Pre-emergence herbicidal action against DIGSA; details: dosage 320 g/ha
How it was run: as §1

Lolium rigidum (LOLRI) [5] = assay: Pre-emergence herbicidal action against LOLRI; details: dosage 320 g/ha
How it was run: as §1

Setaria viridis (SETVI) = assay: Pre-emergence herbicidal action against SETVI; details: dosage 320 g/ha
How it was run: as §1

[6] = tested on: Verconica persica (VERPE); assay: Pre-emergence herbicidal action against VERPE; details: dosage 320 g/ha
How it was run: as §1

Viola tricolor (VIOTR) [7] = assay: Pre-emergence herbicidal action against VIOTR
How it was run: as §1

Brassica napus (BRSNW) = details: crop plant compatibility, in comparison to untreated controls
How it was run: (§2)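 Crop injury rated visually in percent against untreated plants roughly 3 weeks after treatment (0% no effect, 100% plants dead). Compounds, as WP or EC with 0.5% additive in 600 l/ha water, were applied to the covering soil right after sowing; greenhouse growth. Suffixes a, b, c denote different dosages.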

Glycine max (GLXMA) = details: pre-emergence, crop plant compatibility, in comparison to untreated controls
How it was run: as §2

Oryza sativa (ORYSA) [8] = details: pre-emergence, 80 g/ha, crop plant compatibility, in comparison to untreated controls
How it was run: as §2

Zea mays (ZEAMX) [9] = details: pre-emergence, crop plant compatibility, in comparison to untreated controls
How it was run: as §2

Viola tricolor (VIOTR) [10] = assay: Post-emergence herbicidal action against VIOTR
How it was run: (§3)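 Doses of 320 g/ha or lower, suffixes a, b and c marking different dosages, were applied post-emergence at the one-leaf stage in 600 l/ha water with 0.5% additive. Damage was assessed visually after about 3 weeks in the greenhouse.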

Oryza sativa (ORYSA) [11] = details: crop plant compatibility
How it was run: (§4)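 Percent effect on the crop was judged by eye against untreated controls, where 0% means like control and 100% means dead plants. Plants had been sprayed post-emergence at the one-leaf stage and then kept under optimum greenhouse conditions for about 3 weeks.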

[12] = tested on: Echinochloa crus-galli (ECHCG); assay: Post-emergence herbicidal action against ECHCG; details: dosage 320 g/ha
How it was run: as §3

[13] = tested on: Pharbitis purpurea (PHBPU); assay: Post-emergence herbicidal action against PHBPU
How it was run: as §3

[14] = tested on: Triticum aestivum (TRZAS); details: crop plant compatibility, 80 g/ha, effect vs untreated controls
How it was run: as §4

Zea mays (ZEAMX) [15] = details: crop plant compatibility, effect vs untreated controls
How it was run: as §4

[16] = tested on: Abutilon theophrasti (ABUTH); assay: Pre-emergence herbicidal action against ABUTH; details: Dosage column 320 g/ha (title prints 3200 g/ha); scored visually after about 3 weeks; 100% = plants have died
How it was run: as §1

[17] = tested on: Triticum aestivum (TRZAS); details: pre-emergence, 80 g/ha, crop plant compatibility, in comparison to untreated controls
How it was run: as §2

[18] = tested on: Amaranthus retroflexus (AMARE); assay: Post-emergence herbicidal action against AMARE
How it was run: as §3

Avena fatua (AVEFA) [19] = assay: Post-emergence herbicidal action against AVEFA; details: 320 g/ha, visual rating about 3 weeks after treatment
How it was run: as §3

[20] = tested on: Polygonum convolvulus (POLCO); assay: Post-emergence herbicidal action against POLCO
How it was run: as §3

[21] = tested on: Polygonum convolvulus (POLCO); assay: Pre-emergence herbicidal action against POLCO; details: dosage 320 g/ha
How it was run: as §1

[22] = tested on: Alopecurus myosuroides (ALOMY); assay: Post-emergence herbicidal action against ALOMY; details: 320 g/ha, visual rating about 3 weeks after treatment vs untreated controls (100% = plants have died, 0% = like control plants)
How it was run: as §3

[23] = tested on: Digitaria sanguinalis (DIGSA); assay: Post-emergence herbicidal action against DIGSA; details: 320 g/ha, visual rating about 3 weeks after treatment
How it was run: as §3

Lolium rigidum (LOLRI) [24] = assay: Post-emergence herbicidal action against LOLRI; details: dosage 320 g/ha
How it was run: as §3

[25] = 80 g/ha, effect in comparison to untreated controls
[26] = 320 g/ha, effect in comparison to untreated controls
[27] = 320 g/ha, visual rating about 3 weeks after treatment

SMILES | Pre-emergence action against ALOMY [1] [%] | Pre-emergence action against AMARE in % [2] [%] | Pre-emergence action against DIGSA in % [4] [%] | Pre-emergence action against LOLRI in % (Lolium rigidum (LOLRI) [5]) [%] | Pre-emergence action against SETVI in % (Setaria viridis (SETVI)) [%] | Pre-emergence action against VIOTR in % (Viola tricolor (VIOTR) [7]; 320 g/ha, Viola tricolor) [%] | Pre-emergence action against BRSNW in % (Brassica napus (BRSNW); 80 g/ha) [%] | Pre-emergence action against GLXMA in % (Glycine max (GLXMA); 80 g/ha) [%] | Pre-emergence action against ORYSA in % (Oryza sativa (ORYSA) [8]) [%] | Pre-emergence action against ZEAMX in % (Zea mays (ZEAMX) [9]; 80 g/ha) [%] | Post-emergence action against VIOTR in % (Viola tricolor (VIOTR) [10]; 80 g/ha) [%] | Post-emergence action against ORYSA in % (Oryza sativa (ORYSA) [11]; [25]) [%] | Post-emergence action against ECHCG in % [12] [%] | Post-emergence action against PHBPU in % ([13]; dosage 320 g/ha) [%] | Post-emergence action against ORYSA in % (Oryza sativa (ORYSA) [11]; [26]) [%] | Post-emergence action against ZEAMX in % (Zea mays (ZEAMX) [15]; 80 g/ha) [%] | Post-emergence action against AMARE in % [18, 27] [%] | Post-emergence action against AVEFA in % (Avena fatua (AVEFA) [19]) [%] | Post-emergence action against POLCO in % ([20]; dosage 320 g/ha) [%] | other results
COC(=O)[C@@H](C)Oc1nn(-c2cccnc2F)c(-c2ccc(F)nc2)c1Br [II-36] | 100 | 100 | 100 | 80 | 80 | 100 | 0 | 0 | 0 | 20 | 80 | 0 | – | – | – | – | – | – | – | Pre-emergence action against AVEFA in % (Avena fatua (AVEFA) [3]): 80%; Pre-emergence action against VERPE in % [6]: 80%; Pre-emergence action against VIOTR in % (Viola tricolor (VIOTR) [7]; dosage 80 g/ha): 80%; Post-emergence action against ORYSA in % (Oryza sativa (ORYSA) [11]; 20 g/ha, effect vs untreated controls): 0%
COc1cccnc1-n1nc(OCC(=O)O)c(Br)c1-c1ccc(F)nc1 [Example I-363] | – | – | – | – | – | – | 0 | 0 | – | 0 | – | 0 | 80 | 80 | 0 | 0 | – | – | – | Pre-emergence action against BRSNW in % (Brassica napus (BRSNW); 320 g/ha): 20%; Pre-emergence action against GLXMA in % (Glycine max (GLXMA); 320 g/ha): 0%; Pre-emergence action against ZEAMX in % (Zea mays (ZEAMX) [9]; 320 g/ha): 0%; Post-emergence action against TRZAS in % [14]: 0%; Post-emergence action against ZEAMX in % (Zea mays (ZEAMX) [15]; 320 g/ha): 0%
O=C(COc1nn(-c2ccccn2)c(-c2ccc(F)nc2)c1Br)NS(=O)(=O)CC(F)(F)F [Example I-60] | – | 90 | – | 80 | 80 | 80 | – | 20 | 0 | 0 | – | 0 | 80 | – | 0 | – | 80 | 90 | 80 | Pre-emergence action against ABUTH [16]: 80%; Pre-emergence action against TRZAS in % [17]: 0%; Post-emergence action against AMARE in % ([18]; 80 g/ha, visual rating about 3 weeks after treatment vs untreated controls (100% = plants have died, 0% = like control plants)): 80%
COC(=O)[C@@H](C)Oc1nn(-c2ccccn2)c(-c2ccc(Cl)nc2)c1Br [Example I-242] | 80 | 100 | 90 | 90 | – | 100 | 20 | 0 | – | 0 | 80 | 0 | – | 80 | 0 | 10 | 80 | 80 | 80 | Pre-emergence action against POLCO in % [21]: 80%; Post-emergence action against ALOMY in % [22]: 80%; Post-emergence action against DIGSA in % [23]: 80%; Post-emergence action against LOLRI in % (Lolium rigidum (LOLRI) [24]): 80%; Post-emergence action against PHBPU in % ([13]; dosage 80 g/ha): 80%; Post-emergence action against POLCO in % ([20]; dosage 80 g/ha): 80%; Post-emergence action against VIOTR in % (Viola tricolor (VIOTR) [10]; 320 g/ha): 80%
